The record followed here is ChEMBL document CHEMBL4346733, “Evaluation of amidoxime derivatives as prodrug candidates of potent bis-cationic antimalarials” (Bioorg Med Chem Lett, 2019).

pIC50: −log10 of the molar value. The source made the active and inactive calls. No cut-off for these calls is given here.

In series [1] the test system is Plasmodium vinckei petteri. In words: Antimalarial activity against Plasmodium vinckei petteri 279BY infected in Swiss mouse assessed as reduction in parasitemia administered once daily via oral gavage starting from day 1 to day 4 post infection measured on day 5 Giemsa staining based flow cytometric analysis. The class given is functional.
Series [2] deals with Plasmodium vinckei petteri. In words: Antimalarial activity against Plasmodium vinckei petteri 279BY infected in Swiss mouse assessed as reduction in parasitemia administered once daily via intraperitoneal route starting from day 1 to day 4 post infection measured on day 5 Giemsa staining based flow cytometric analysis. The format is functional. The note with it: ip. A general note: In flow cytometry, cells or beads pass a laser one at a time.

In series [3] the test system is Plasmodium vinckei petteri. Briefly: Antimalarial activity against Plasmodium vinckei petteri 279BY infected in Swiss mouse assessed as reduction in parasitemia at 20 mg/kg, ip once daily for 4 consecutive days starting from day 1 to day 4 post infection and measured on day 5 Giemsa staining based flow cytometric analysis. The class given is functional, organism-based.

For series [4], the system named is Plasmodium vinckei petteri. Briefly: Selectivity index, ratio of ED50 for antimalarial activity against Plasmodium vinckei petteri 279BY infected in Swiss mouse administered via intraperitoneal route to ED50 for antimalarial activity against Plasmodium vinckei petteri 279BY infected in Swiss mouse administered via oral route. The format is functional.
In series [5] the test system is Plasmodium falciparum. Briefly: Antimalarial activity against chloroquine-sensitive Plasmodium falciparum Nigerian infected in human blood after 48 hrs by [3H]-hypoxanthine incorporation assay. The format is functional, organism-based.
Series [6] relates to Plasmodium vinckei petteri. In words: Antimalarial activity against Plasmodium vinckei petteri 279BY infected in Swiss mouse assessed as reduction in parasitemia at dosed intraperitoneally once daily for 4 consecutive days starting from day 1 to day 4 post infection and measured on day 28 by Giemsa staining based flow cytometric analysis. Details: scale not given: the % may be the effect or the level left. The class given is functional.

The nature of series [7]: Stability of compound in human blood at 1000 ug/ml up to 120 mins by HPLC-UV analysis. The class given is ADME, tissue-based. The following applies: 2 h.
Series [8] can be described thus: Drug metabolism in human liver microsomes assessed as disappearance of parent compound at 0.5 mM after 2 hrs by HPLC-UV analysis. The class given is ADME, Microsome. The note with it: read-out: Drug metabolism.
The nature of series [9]: Drug metabolism in human liver microsomes assessed as 1-(4-N-isopropylamidinophenoxy)-8-N-isopropylamidinooctane dihydrochloride formation by measuring disappearance of parent compound at 0.5 mM after 2 hrs by HPLC-UV analysis. The format is ADME, Microsome. The note with it: 500 µM.
Series [10] is described as follows: Drug metabolism in human liver microsomes assessed as monoamidine-1 formation by measuring retention time of metabolite at 0.5 mM after 2 hrs by HPLC-UV analysis. The note with it: 500 µM. The class given is ADME, Microsome. (In general: Liver microsomes are vesicles of endoplasmic reticulum, rich in cytochrome P450 enzymes.)
Series [11] is described as follows: Retention time of compound in human liver microsomes at 0.5 mM after 2 hrs HPLC-UV analysis. The class given is ADME, Microsome. The note with it: 500 µM.
A short description of series [12]: Drug metabolism in human liver microsomes assessed as 1-(4-N-isopropylamidinophenoxy)-8-N-isopropylamidinooctane dihydrochloride formation by measuring retention time of metabolite at 0.5 mM after 2 hrs by HPLC-UV analysis. The class given is ADME, Microsome. The following applies: 500 µM.
The nature of series [13]: Stability of compound in human plasma at 1000 ug/ml up to 120 mins by HPLC-UV analysis. The format is ADME, cell-free. The note with it: 2 h.
Series [14] is described as follows: Retention time of compound at 0.05 mg/ml by HPLC analysis. The format is physicochemical.
Series [15] in a line: Drug metabolism in human liver microsomes assessed as 1-(4-Amidinophenoxy)-8-amidinooctane dihydrochloride formation by measuring retention time of metabolite at 0.5 mM after 2 hrs by HPLC-UV analysis. The class given is ADME, Microsome. The following applies: 500 µM.
The nature of series [16]: Drug metabolism in human liver microsomes assessed as 1-(4-N-pyrrolidinylamidinophenoxy)-8-N-pyrrolidinylamidinooctane dihydrochloride formation by measuring retention time of metabolite at 0.5 mM after 2 hrs by LC-MS analysis. The note with it: 500 µM. The class given is ADME, Microsome.
The subject of series [17] is Plasmodium falciparum. Briefly: Antimalarial activity against chloroquine-sensitive Plasmodium falciparum Nigerian after 48 hrs by [3H]-hypoxanthine incorporation assay. The format is functional, organism-based.

The ED50 is the dose that gives a 50% effect, or the effect in half of the subjects. In the case of `COc1cccc(/C(=N/O)NCCCCCCCCCCCCN/C(=N\O)c2cccc(OC)c2)c1`, the ED50 was greater than 90 mg/kg in [1] and greater than 20 mg/kg in series [2].

Broadly, the pIC50 is the negative decadic logarithm of the IC50, by convention in mol/L. As to `Cc1c(CCO)sc[n+]1CCCCCCCCOc1ccc(/C(N)=N/O)cc1.[Br-]`, in series [3], the result was inactive. The median effective dose (ED50) is 85 mg/kg in series [1] and greater than 20 mg/kg in series [2]. Further, the “Ratio ED50” value in series [4] is reported as greater than 0.23. The compound also showed a pIC50 in the series with Plasmodium falciparum [5] of 6.44. For the same compound, the Activity in series [6] turned out to be 100%.

As for `Cc1c(CCO)sc[n+]1CCCCCCCCCCCC/C(N)=N/O.[Br-]`, the ED50 in series [1] was greater than 180 mg/kg; in [2], 20 mg/kg. The pIC50 in the series with Plasmodium falciparum [5] is 6.62.

Turning to `Br.Br.CC(C)N/C(=N\O)c1ccc(OCCCCCCCC/C(=N\O)NC(C)C)cc1`, the Stability result in series [7] and in series [13] was “Stable” throughout. For the same compound, the metabolised at 2 h, 500 µM in series [8] turned out to be 6%. The Drug metabolism in series [9] is 90%. The ED50 is greater than 180 mg/kg in series [1] and greater than 20 mg/kg in series [2]. In addition, the Retention_time in series [10] stood at 12.1 min; in [11], 13.3 min; in series [12], 10 min; in [14] it was 13.1 min.

With `C[C@H]1[C@H](OC(=O)CCC(=O)O)O[C@@H]2O[C@@]3(C)CC[C@H]4[C@H](C)CC[C@@H]1[C@@]24OO3` [ARTESUNATE], the ED50 in series [2] is 1.2 mg/kg.

In the case of `CO/N=C(\NCCCCCCCCCCCCN/C(=N\OC)c1cccc(OC)c1)c1cccc(OC)c1`, the ED50 was greater than 90 mg/kg in [1] and greater than 20 mg/kg in series [2].

As for `CO/N=C(\NCCCCCCCCCCCCN/C(=N\OC)c1ccc(OC)c(OC)c1)c1ccc(OC)c(OC)c1`, the values for the ED50 in series [1] and in [2] were greater than 90 mg/kg and greater than 20 mg/kg, respectively.

As to `O/N=C(\NCCCCCCCCCCCCN/C(=N\O)c1ccccc1)c1ccccc1`, the ED50 in [1] is greater than 90 mg/kg; in [2], greater than 20 mg/kg.

With `Cl.Cl.N=C(CCCCCCCCOc1ccc(C(=N)N2CCCC2)cc1)N1CCCC1`, the ED50 in series [1] was 51 mg/kg; in series [2] it was 1.4 mg/kg. Besides, the pIC50 with Plasmodium falciparum [5] was 7.80. In series [14], this compound came in with a Retention_time of 11.8 min.

As to `N=C(N)c1ccc(OCCCCCOc2ccc(C(=N)N)cc2)cc1` [PENTAMIDINE], in [8], the metabolised at 2 h, 500 µM is 82%. Also, the results for the Retention_time in series [11] and in [14] were 25.1 min and 25.4 min, respectively.

On to `CC(C)NC(=N)CCCCCCCCOc1ccc(C(=N)NC(C)C)cc1.Cl.Cl`, for which the results for the median effective dose (ED50) in series [1] and in [2] were 110 mg/kg and 2.8 mg/kg, respectively. In the series with Plasmodium falciparum [5], this compound showed a pIC50 of 8.02. The Retention_time in series [14] worked out at 10.1 min.

Regarding `COCCc1sc[n+](CCCCCCCCCCCOc2ccc(/C(N)=N/O)cc2)c1C.[Br-]`, the ED50 was greater than 90 mg/kg in [1] and 8.8 mg/kg in [2]. This compound gave a pIC50 with Plasmodium falciparum [5] of 6.28.

As for `Cc1c(CCO)sc[n+]1CCCCCCCCCCCOc1ccc(/C(N)=N/O)cc1.[Br-]`, the ED50 was greater than 90 mg/kg in series [1] and greater than 20 mg/kg in series [2]. This compound gave a pIC50 in the series on Plasmodium falciparum [5] of 6.50.

With `COc1ccc(/C(=N/O)NCCCCCCCCCCCCN/C(=N\O)c2ccc(OC)cc2)cc1`, the ED50 in series [1] is greater than 90 mg/kg; in series [2], greater than 20 mg/kg. Also, the pIC50 in the series on Plasmodium falciparum [5] was 4.62.

`Cl.Cl.N=C(N)CCCCCCCCCCCOc1ccc(C(=N)N)cc1`: the ED50 in [2] was 2.2 mg/kg. This compound gave a pIC50 in the series with Plasmodium falciparum [5] of 6.71.

With `CCN(CC)CCCC(C)Nc1ccnc2cc(Cl)ccc12` (centres undefined) [CHLOROQUINE], the values for the ED50 in series [1] and in series [2] were 3.4 mg/kg and 1.1 mg/kg, respectively.

Take `N/C(=N\O)c1ccc(OCCCCCOc2ccc(/C(N)=N/O)cc2)cc1` [PENTAMIDINE DAO]: the Stability entry in series [7] and in [13] was “Stable” each time. Moreover, the metabolised at 2 h, 500 µM in [8] came out at 3%. Further, the Retention_time is 29 min in series [11] and 22.3 min in [14].

Take `Br.Br.N/C(=N\O)c1ccc(OCCCCCCCC/C(N)=N\O)cc1`: the Stability entry in series [7] and in series [13] was “Stable” each time. The metabolised at 2 h, 500 µM in [8] is 7%. For the same compound, the ED50 was greater than 180 mg/kg in [1] and greater than 10 mg/kg in [2]. The Retention_time in [10] came to 16.5 min; in series [11], 15.6 min; in series [14] it was 11.5 min; in series [15], 17.3 min. Besides, the pIC50 in the series on Plasmodium falciparum [5] is 5.70.

Regarding `Cl.Cl.N=C(N)CCCCCCCCOc1ccc(C(=N)N)cc1`, the ED50 is greater than 90 mg/kg in series [1] and 9 mg/kg in series [2]. In the series on Plasmodium falciparum [5], the pIC50 is 7.29. In addition, in series [14], the Retention_time came out at 12.9 min.

As for `Br.Br.O/N=C(/c1ccc(OCCCCCCCC/C(=N\O)N2CCCC2)cc1)N1CCCC1`, the Stability result in [7] and in series [13] was “Stable” throughout. In [8], the metabolised at 2 h, 500 µM is 14%. The ED50 in [1] was greater than 100 mg/kg; in series [2] it was 10 mg/kg. The Retention_time in [16] was 11.8 min; in series [11], 12.3 min; in [14], 12.6 min.

The compound `Cc1c(CCO)sc[n+]1CCCCCCCCCCCCC(=N)N` had a pIC50 with Plasmodium falciparum [17] of 8.66.

Regarding `CO/N=C(\NCCCCCCCCCCCCN/C(=N\OC)c1ccccc1)c1ccccc1`, the values for the median effective dose (ED50) in series [1] and in [2] were greater than 90 mg/kg and greater than 20 mg/kg, respectively.

As to `COc1ccc(/C(=N/O)NCCCCCCCCCCCCN/C(=N\O)c2ccc(OC)c(OC)c2)cc1OC`, the ED50 in series [1] is greater than 90 mg/kg; in series [2], 9.1 mg/kg.
